Assay results as given in patent US6093738A, “Proton pump inhibitors” (priority 1997, dated 2000).

What was measured:
[1] = test system: cAMP stimulated acid secretion, mouse gastric glands; assay: cAMP stimulated acid secretion (14C-aminopyrine accumulation) in isolated mouse gastric glands; type: cell-based; conditions: 100 μM, 60 min, 37° C.
Experimental: (§1) Acid secretion is measured indirectly by the accumulation of the weak base ^14 C-aminopyrine in the isolated murine gastric glands of mouse. The assay is performed in polypropylene eppendorf tubes containing 0.5 mL of resuspended mouse gastric glands. In addition, tubes contain the tested drug, acid secretagogues (e.g. histamine, di-butyryl cyclic AMP (cAMP), carbachol) and ^14 C-aminopyrine. Tubes are incubated for 60 min. at 37° C. and continuously rotated. The reaction is stopped by centrifugation of the gland suspension for five min. at 1500 g. Supernatant is aspirated leaving the pellet containing intact gastric glands. The pellet is washed extensively and digested overnight in 1 mL of Protosol (Amersham). After neutralisation with acetic acid and addition of scintillation fluid, the radioactivity is counted in a beta-counter (Beckman). The amount of radioactivity trapped in the pellet corresponds directly with the amount of acid being secreted. Each experimental point is done in triplicate. In each experiment, energy independent consumption was estimated with 0.1 mM of dinitrophenol and basal acid secretion in the absence of acid stimulants. These values were then subtracted from corresponding results in order to calculate basal or secretagogue stimulated acid secretion. […] Each experiment is repeated a number of times and all results are expressed as a % of the maximum stimulation.

[2] = test system: histamine stimulated acid secretion, mouse gastric glands; assay: Histamine stimulated acid secretion (14C-aminopyrine accumulation) in isolated mouse gastric glands; type: cell-based; conditions: 100 μM, 60 min, 37° C.
Experimental: as §1

[3] = test system: gastric acid secretion, mouse gastric glands; assay: In vitro inhibition of gastric acid secretion (14C-aminopyrine accumulation) in isolated mouse gastric glands, secretagogue not stated; type: cell-based; conditions: 1 h, 60 min, 37° C., read-out: ED50 (the source's name)
[4] = Reaction with phenethyl mercaptan in methanol (chemical model of proton pump thiol reactivity); conditions: for conversion to 2-mercaptobenzimidazole on reaction with phenethyl mercaptan / time after which reaction with phenethyl mercaptan is complete: methanol
Excerpt: A useful in vitro model for obtaining an indication of the reactivity of thiadiazole compound towards the proton pump enzyme for deactivation thereof is provided by the reactivity of the thiadiazole compound towards phenethylmercaptan. The chemical mechanism of this process, as applied to the thiadiazolobenzimidazole compounds of the present invention, is diagrammatically illustrated on FIG. 3 of the accompanying drawings. The first stage of reaction forms a disulfide compound by cleavage of the S--N bond of the thiadiazole ring. This disulfide X cannot be isolated, since it reacts very rapidly with a second mercaptan group to give the disulfide of phenethylmercaptan and intermediate XI. In connection with the actual enzyme, the second step involving attack of another thiol group would not happen because of steric factors inhibiting the approach of two enzymes, or would lead to the formation of a disulfide bond in the event that another proximal thiol group is present. In both cases, this would lead to the inhibition of the enzyme. In some cases, intermediate XI further degrades to 2-mercaptobenzimidazole VIII or 1-cyano-2-mercaptobenzimidazole XII. A similar mechanism is followed by the imidazothiadiazoles of the present invention. Further description and discussion of this reaction and test method is included in the specific example section hereof.
To a solution of 23 mg of 3-(dimethylamino)-1,2,4-thiadiazolo[4,5-a]benzimidazole in 10 mL of methanol was added 360 μL of phenethyl mercaptan. After 1 min, the reaction is complete. The solvent was evaporated and the crude material was purified by chromatography to give 15 mg of N^1, N^1 -dimethyl-2-mercapto-1-benzimidazolylamidine: ^1 H NMR (DMSO-d6) δ 7.3-7.0 (m, 4H, 4×ArH), 3.35 (br s, 2H, NH, SH), 2.88 (s, 6H, 2×NCH3) ppm; IR (KBr) .nu. 3210, 1641, 1475, 1452, 1407, 1319 cm^-1; MS m/z 220 (M+), 150 (M^+ -Me2 NC=NH).
To a solution of 23 mg of 3-methoxy-1,2,4-thiadiazolo [4,5-a]benzimidazole in 10 mL of methanol was added 376 μL of phenethyl mercaptan. After 1 min, the reaction is complete. The methyl 2-mercapto-1-benzimidazolecarboximidate was identified as the major reaction product of the reaction: ^1 H NMR (DMSO-d6) δ 13.45 (br s, 1H, SH or NH), 9.8 (s, 1H, NH or SH), 7.7 (d, 1H, J=8 Hz, ArH), 7.35-7.2 (m, 3H, 3×ArH), 3.95 (s, 3H, OCH3) ppm; IR (KBr) .nu. 3437, 3095, 1679, 1450, 1440, 1376, 1193, 735 cm^-1; MS m/z=207 (M^+), 150 (M^+ -MeOC=NH)
To a suspension of 26 mg of 3-(oxophenylmethyl)-1,2,4-thiadiazolo[4,5-a]benzimidazole in 10 mL methanol was added 31 μL of phenethyl mercaptan.
To a suspension of 25 mg of 3-[hydroxy(4-methoxy-3,5-dimethyl-2-pyridyl)methyl]-1,2,4-thiadiazolo[4,5- a]benzimidazole in 10 mL methanol was added 250 μL of phenethyl mercaptan.
To a suspension of 31 mg of 3-[(4-methylphenyl) sulfonyl]-1,2,4-thiadiazolo[4,5-a]benzimidazole in 10 mL methanol was added 313 μL of phenethyl mercaptan.
Phenethyl mercaptan (120 μL, 0.90 mmol) was added to a suspension of 3-[(4-4-methoxy-3,5-dimethyl-2-pyridyl) oxomethyl]-1,2,4-thiadiazolo[4,5-a]benzimidazole (300 mg, 0.887 mmol) in methanol (150 ml) and 0.1 M hydrochloric acid (38 mL). After stirring the mixture at room temperature for 51 h, the mixture was neutralized to pH 6 with aqueous sodium bicarbonate and extracted with ethyl ether. The ether layer was dried on sodium sulfate and evaporated.

[5] = Reaction of 1,2,4-thiadiazolo[4,5-a]benzimidazole derivative with 2-mercaptoethanol, determination of t1/2 values; conditions: compound 5×10^-3 M, 2-mercaptoethanol 1.15×10^-2 M, methanol, R.T., HPLC; 5000 µM
Experimental: The column is eluted with 70% 50 mM ammonium acetate; 30% acetonitrile as the mobile phase.
Percentage reaction completion was calculated as follows:
At time 0, 100% starting material remained unreacted.
At time t, % of unreacted starting material={hsample /hint.std at
time t}/{hsample /hint.std at time O}*100%.

gastric acid secretion [6] = assay: Histamine-stimulated gastric acid secretion in anesthetized rats (dose-dependent study); type: in vivo, Sprague-Dawley rats; conditions: rat, oral gavage, at 3, 30, 300 μmol/kg doses; histamine 5 mg/kg i.v. infusion 2 h
Experimental: Fasted, adult (140-240 g), male, Sprague-Dawley rats were fasted for 24 h from food, but not water, and then treated by oral gavage with 1 to 1.5 mL total volume of 4 different doses (0.3, 3, 30, and 300 μmol/kg) of each compound on different days. Two hours later, rats were anesthetized with a combination of pentobartital and thiopental, the abdomen was opened and the pylorus was ligated, and tracheal, gastric, and peripheral venous canulas were placed. The stomachs were lavaged with 10 mL 0.9% saline every 10 min. for 30 min and the gastric effluent collected in receptacles. Acid output was determined in each gastric effluent sample by back-titration to pH 7.0 using 0.02M NaOH. Then, 5 mL of an 8% peptone meal (pH 5.5) was instilled into the stomachs, mixed, and drained after 10 min each time for 2 hours. Acid output was determined in each gastric effluent sample by back-titration to pH 7.0 using 0.02 M NaOH. After measuring basal acid output for at least 30 minutes, acid output was then measured during a 2 h intravenous infusion of histamine (5 mg/kg).

gastric acid secretion [7] = assay: Meal (8% peptone)-stimulated gastric acid secretion in rats; type: in vivo, Sprague-Dawley rats; conditions: rat, oral gavage, 300 μmol/kg
Experimental: Fasted, adult (140-240 g), male, Sprague-Dawley rats were fasted for 24 h from food, but not water, and then treated by oral gavage with 1 to 1.5 mL total volume of compound of Formula I (300 μmmol/Kg) on different days. Two hours later, rats were anesthetized with a combination of pentobartital and thiopental, the abdomen was opened and the pylorus was ligated, and tracheal, gastric, and peripheral venous canulas were placed. The stomachs were lavaged with 10 mL 0.9% saline every 10 min. for 30 min and the gastric effluent collected in receptacles to determine the basal acid secretion. Acid output was determined in each gastric effluent sample by back-titration to pH 7.0 using 0.02M NaOH. Then, 5 mL of an 8% peptone meal (pH 5.5) was instilled into the stomachs, mixed, and drained after 10 min each time for 2 hours. Acid output was determined in each gastric effluent containing the peptone meal by back-titration to pH 5.5 using 0.02 M NaOH.

gastric acid secretion [8] = assay: Suppression of gastric acid secretion in animal model; type: in vivo
Solubility in water = type: physicochemical
[9] = Acid stability in 6 molar hydrochloric acid; type: physicochemical; conditions: minimum methanol, room temperature
Experimental: To examine acid stability of the captioned compound, the compound was dissolved in a minimum volume of methanol and the resulting solution was added to a 6 molar solution of hydrochloric acid.

CN1CCN(c2nsc3nc4ccccc4n23)CC1.Cl.Cl [3-(4-methyl-1-piperazinyl)-1,2,4-thiadiazolo[4,5-a]benzimidazole dihydrochloride]
inhibition of cAMP stimulated acid secretion [1]: completely inhibited | inhibition of histamine stimulated acid secretion [2]: completely inhibited | IC50 [3]: 50 µM

O=C(c1ccccc1)c1nsc2nc3ccccc3n12 [3-(oxophenylmethyl)-1,2,4-thiadiazolo[4,5-a]benzimidazole]
conversion to 2-mercaptobenzimidazole on reaction with phenethyl mercaptan [4]: complete conversion

COc1c(C)cnc(C(=O)c2nsc3nc4ccccc4n23)c1C [3-[(4-methoxy-3,5-dimethyl-2-pyridyl)oxomethyl]-1,2,4-thiadiazolo[4,5-a]benzimidazole]
recovered starting material after reaction with phenethyl mercaptan ([4]; methanol and 0.1 M hydrochloric acid, room temperature, 51 h): 14.6%

Cc1ccc(S(=O)(=O)c2nsc3nc4ccccc4n23)cc1 [3-[(4-methylphenyl)sulfonyl]-1,2,4-thiadiazolo[4,5-a]benzimidazole]
conversion to 2-mercaptobenzimidazole on reaction with phenethyl mercaptan [4]: complete conversion

COc1c(C)cnc(C(O)c2nsc3nc4ccccc4n23)c1C (stereo not shown) [3-[hydroxy(4-methoxy-3,5-dimethyl-2-pyridyl)methyl]-1,2,4-thiadiazolo[4,5-a]benzimidazole]
conversion to 2-mercaptobenzimidazole on reaction with phenethyl mercaptan [4]: complete conversion

CN1CCN(c2nsc3nc4ccccc4n23)CC1 [4-methylpiperazinyl, 3-(4-methyl-1-piperazinyl)-1,2,4-thiadiazolo-[4,5-a]benzimidazole]
t1/2 at pH = 7.0 [5]: 6.7 h

COc1ccc2c(c1)nc1snc(C(=O)c3ncc(C)c(OC)c3C)n12 [7-methoxy-3-[(4-methoxy-3,5-dimethyl-2-pyridyl)oxomethyl]-1,2,4-thiadiazolo[4,5-a]benzimidazole]
inhibition of histamine-stimulated acid secretion (gastric acid secretion [6]): significant (p<0.05) inhibition | inhibition of meal-stimulated acid secretion (gastric acid secretion [7]): significant (p<0.05) inhibition | acid output after 1 h (gastric acid secretion [7]; 8% peptone stimulated, after 1 h): 20 μmmol/30 min | suppression of gastric acid secretion (gastric acid secretion [8]): active in the suppression of gastric acid secretion | solubility in water (Solubility in water): limited solubility in water | acid stability [9]: very stable in acid and was totally recovered after stirring for 48 hours at room temperature

c1ccc(-c2nsc3nc4ccccc4n23)nc1 [Example 2-pyridyl, 3-(2-pyridyl)-1,2,4-thiadiazolo[4,5-a]benzimidazole]
t1/2 at pH = 7.0 [5]: 134 h

CN(C)c1nsc2nc3ccccc3n12 [Me2 N, 3-(dimethylamino)-1,2,4-thiadiazolo[4,5-a]benzimidazole]
time after which reaction with phenethyl mercaptan is complete [4]: ≤ 1 min | t1/2 at pH = 7.0 [5]: 1.5 h

COc1nsc2nc3ccccc3n12 [MeO, 3-methoxy-1,2,4-thiadiazolo[4,5-a]benzimidazole]
time after which reaction with phenethyl mercaptan is complete [4]: ≤ 1 min | t1/2 at pH = 7.0 [5]: 0.31 h

COc1ccc2[nH]c([S+]([O-])Cc3ncc(C)c(OC)c3C)nc2c1 (stereo not shown) [Omeprazole, reference compound]
acid stability [9]: complete decomposition in a few minutes

CC(=O)c1nsc2nc3ccccc3n12 [acetyl, 3-(1-oxoethyl)-1,2,4-thiadiazolo[4,5-a]benzimidazole]
t1/2 at pH = 7.0 [5]: 110 h

Cc1nsc2nc3ccccc3n12 [methyl, 3-methyl-1,2,4-thiadiazolo[4,5-a]benzimidazole]
t1/2 at pH = 7.0 [5]: 59 h

c1ccc2c(c1)nc1snc(N3CCOCC3)n12 [morpholino, 3-(4-morpholinyl)-1,2,4-thiadiazolo[4,5-a]benzimidazole]
t1/2 at pH = 7.0 [5]: 2.4 h

c1ccc2c(c1)nc1snc(CN3CCOCC3)n12 [morpholinomethyl, 3-(morpholinomethyl)-1,2,4-thiadiazolo[4,5-a]benzimidazole]
t1/2 at pH = 7.0 [5]: 98 h

c1ccc(-c2nsc3nc4ccccc4n23)cc1 [phenyl]
t1/2 at pH = 7.0 [5]: 45 h
